Data published in ChEMBL document CHEMBL6134848, “Deuteration Strategy-Inspired Design of Novel Diarylpyrimidine Derivatives as Potent Non-Nucleoside Reverse Transcriptase Inhibitors Featuring Improved Efficacy, Selectivity, and Druggability” (J Med Chem, 2025).

Experiments:
[1] = tested on: Human immunodeficiency virus 1; assay: Antiviral activity against wild-type HIV-1 IIIB infected in human MT4 cells assessed as protection against virus-induced cytopathicity measured after 5 days post-infection by MTT assay; format: functional, organism-based; conditions: Human immunodeficiency virus 1, IIIB, MT4, 120 h
[2] = Cytotoxicity against human MT4 cells assessed as reduction in cell viability by MTT assay; format: toxicity, cell-based
[3] = Selectivity index, ratio of CC50 for cytotoxicity against human MT4 cells to EC50 for antiviral activity against wild-type HIV-1 IIIB infected in human MT4 cells; format: toxicity, cell-based; conditions: read-out: Ratio CC50/EC50
[4] = tested on: Human immunodeficiency virus 1; assay: Antiviral activity against drug-resistant HIV-1 harboring RT L100I mutant infected in human MT4 cells assessed as protection against virus-induced cytopathicity measured after 5 days post-infection by MTT assay; format: functional, organism-based; conditions: Human immunodeficiency virus 1, MT4, 120 h
[5] = tested on: Human immunodeficiency virus 1; assay: Antiviral activity against drug-resistant HIV-1 harboring RT K103N mutant infected in human MT4 cells assessed as protection against virus-induced cytopathicity measured after 5 days post-infection by MTT assay; format: functional, organism-based; conditions: Human immunodeficiency virus 1, MT4, 120 h
[6] = tested on: Human immunodeficiency virus 1; assay: Antiviral activity against drug-resistant HIV-1 harboring RT Y181C mutant infected in human MT4 cells assessed as protection against virus-induced cytopathicity measured after 5 days post-infection by MTT assay; format: functional, organism-based; conditions: Human immunodeficiency virus 1, MT4, 120 h
[7] = tested on: Human immunodeficiency virus 1; assay: Antiviral activity against drug-resistant HIV-1 harboring RT Y188L mutant infected in human MT4 cells assessed as protection against virus-induced cytopathicity measured after 5 days post-infection by MTT assay; format: functional, organism-based; conditions: Human immunodeficiency virus 1, MT4, 120 h
[8] = tested on: Human immunodeficiency virus 1; assay: Antiviral activity against drug-resistant HIV-1 harboring RT E138K mutant infected in human MT4 cells assessed as protection against virus-induced cytopathicity measured after 5 days post-infection by MTT assay; format: functional, organism-based; conditions: Human immunodeficiency virus 1, MT4, 120 h
[9] = tested on: Human immunodeficiency virus 1; assay: Antiviral activity against drug-resistant HIV-1 harboring RT F227L/V106A mutant infected in human MT4 cells assessed as protection against virus-induced cytopathicity measured after 5 days post-infection by MTT assay; format: functional, organism-based; conditions: Human immunodeficiency virus 1, MT4, 120 h
[10] = tested on: Human immunodeficiency virus 1; assay: Antiviral activity against drug-resistant HIV-1 harboring RT RES056 mutant infected in human MT4 cells assessed as protection against virus-induced cytopathicity measured after 5 days post-infection by MTT assay; format: functional, organism-based; conditions: Human immunodeficiency virus 1, MT4, 120 h
[11] = molecular target: Human immunodeficiency virus type 1 reverse transcriptase (Human immunodeficiency virus 1, UniProt Q72547); assay: Inhibition of recombinant wild type HIV-1 reverse transcriptase incubated for 40 mins in presence of poly(rA) template/oligo(dT)16 primer by Pico-Green dye based analysis
[12] = Metabolic stability in human liver microsomes assessed as half life at 1 uM measured up to 45 mins by LC/MS/MS analysis; format: ADME, Microsome; conditions: liver microsomes

Cc1cc(-c2ccc(C#N)cc2)cc(C)c1Nc1ccnc(Nc2ccc(C#N)cc2)n1
EC50 [1]: 1.86 nM | CC50 [2]: 6.11 µM | selectivity ratio [3]: 3280 | EC50 [4]: 4.02 nM | EC50 [5]: 2.88 nM | EC50 [6]: 7.26 nM | EC50 [7]: 40.5 nM | EC50 [8]: 8.16 nM | EC50 [9]: 796 nM | EC50 [10]: 54.3 nM | IC50 [11]: 340 nM

[2H]C([2H])([2H])c1cc(C#N)cc(C)c1Oc1nc(NC2CCN(Cc3ccc(S(N)(=O)=O)cc3)CC2)nc2scnc12
EC50 [1]: 2.8 nM | CC50 [2]: 14.9 µM | selectivity ratio [3]: 5320 | EC50 [4]: 10.9 nM | EC50 [5]: 4.39 nM | EC50 [6]: 10.1 nM | EC50 [7]: 45.5 nM | EC50 [8]: 28.1 nM | EC50 [9]: 181 nM | EC50 [10]: 57.6 nM | IC50 [11]: 150 nM

[2H]C([2H])([2H])c1cc(C#N)cc(C)c1Oc1nc(NC2CCN(Cc3ccc(C(N)=O)cc3)CC2)nc2sccc12
EC50 [1]: 8.92 nM | CC50 [2]: > 242 µM | selectivity ratio [3]: > 27200 | EC50 [4]: 29.2 nM | EC50 [5]: 18.1 nM | EC50 [6]: 47.6 nM | EC50 [7]: 94.5 nM | EC50 [8]: 63.5 nM | EC50 [9]: 71.5 nM | EC50 [10]: 320 nM | IC50 [11]: 120 nM

[2H]C([2H])([2H])c1cc(C#N)cc(C)c1Oc1nc(NC2CCN(Cc3ccc(C(N)=O)cc3)CC2)nc2ccccc12
EC50 [1]: 5.4 nM | CC50 [2]: 150 µM | selectivity ratio [3]: 27900 | EC50 [4]: 14.5 nM | EC50 [5]: 4.86 nM | EC50 [6]: 47 nM | EC50 [7]: 67.8 nM | EC50 [8]: 63.1 nM | EC50 [9]: 1270 nM | EC50 [10]: 1810 nM | IC50 [11]: 210 nM

[2H]C([2H])([2H])c1cc(/C=C/C#N)cc(C([2H])([2H])[2H])c1Nc1ccnc(Nc2ccc(C#N)cc2)n1
EC50 [1]: 1.41 nM | CC50 [2]: 6.59 µM | half-life at 1 µM [12]: 22.8 min | EC50 [4]: 2.42 nM | EC50 [5]: 1.81 nM | EC50 [6]: 2.75 nM | EC50 [8]: 5.84 nM | EC50 [9]: 76.2 nM | EC50 [10]: 13.2 nM | IC50 [11]: 20 nM

[2H]C([2H])([2H])c1cc(C#N)cc(C)c1Oc1nc(NC2CCN(Cc3ccc(S(N)(=O)=O)cc3)CC2)nc2ccsc12
EC50 [1]: 5.77 nM | CC50 [2]: 178 µM | selectivity ratio [3]: 31200 | EC50 [4]: 8.56 nM | EC50 [5]: 3.67 nM | EC50 [6]: 12.1 nM | EC50 [7]: 12 nM | EC50 [8]: 12.6 nM | EC50 [9]: 9.97 nM | EC50 [10]: 217 nM | IC50 [11]: 190 nM

[2H]C([2H])([2H])c1cc(C#N)cc(C)c1Oc1nc(NC2CCN(Cc3ccc(C(N)=O)cc3)CC2)nc2scnc12
EC50 [1]: 2.03 nM | CC50 [2]: 22 µM | selectivity ratio [3]: 10800 | EC50 [4]: 13.3 nM | EC50 [5]: 4.31 nM | EC50 [6]: 10.4 nM | EC50 [7]: 52.9 nM | EC50 [8]: 10.4 nM | EC50 [9]: 103 nM | EC50 [10]: 143 nM | IC50 [11]: 170 nM

[2H]C([2H])([2H])c1cc(C#N)cc(C([2H])([2H])[2H])c1Oc1nc(NC2CCN(Cc3ccc(S(N)(=O)=O)cc3)CC2)nc2sccc12
EC50 [1]: 6.53 nM | CC50 [2]: > 225 µM | selectivity ratio [3]: > 34500 | EC50 [4]: 6.44 nM | EC50 [5]: 4.28 nM | EC50 [6]: 11.2 nM | EC50 [7]: 10.4 nM | EC50 [8]: 19.5 nM | EC50 [9]: 8.79 nM | EC50 [10]: 141 nM | IC50 [11]: 160 nM

[2H]C([2H])([2H])c1cc(C#N)cc(C([2H])([2H])[2H])c1Oc1nc(NC2CCN(Cc3ccc(S(N)(=O)=O)cc3)CC2)nc2scnc12
EC50 [1]: 2.16 nM | CC50 [2]: 17.9 µM | selectivity ratio [3]: 8290 | EC50 [4]: 10.8 nM | EC50 [5]: 2.2 nM | EC50 [6]: 8.05 nM | EC50 [7]: 46 nM | EC50 [8]: 10.3 nM | EC50 [9]: 46.4 nM | EC50 [10]: 86.4 nM | IC50 [11]: 190 nM

[2H]C([2H])([2H])c1cc(C#N)cc(C([2H])([2H])[2H])c1Oc1nc(NC2CCN(Cc3ccc(S(N)(=O)=O)cc3)CC2)nc2ccccc12
EC50 [1]: 5.47 nM | CC50 [2]: 24.3 µM | selectivity ratio [3]: 4440 | EC50 [4]: 16.8 nM | EC50 [5]: 8.7 nM | EC50 [6]: 50.7 nM | EC50 [7]: 150 nM | EC50 [8]: 37.4 nM | EC50 [9]: 59.8 nM | EC50 [10]: 276 nM | IC50 [11]: 230 nM

[2H]C([2H])([2H])c1cc(C#N)cc(C([2H])([2H])[2H])c1Oc1nc(NC2CCN(Cc3ccc(C(N)=O)cc3)CC2)nc2scnc12
EC50 [1]: 2.36 nM | CC50 [2]: 21.5 µM | selectivity ratio [3]: 9130 | EC50 [4]: 12.8 nM | EC50 [5]: 2.79 nM | EC50 [6]: 11.6 nM | EC50 [7]: 52.1 nM | EC50 [8]: 11.3 nM | EC50 [9]: 161 nM | EC50 [10]: 166 nM | IC50 [11]: 160 nM

[2H]C([2H])([2H])c1cc(C#N)cc(C([2H])([2H])[2H])c1Oc1nc(NC2CCN(Cc3ccc(C(N)=O)cc3)CC2)nc2ccccc12
EC50 [1]: 7.31 nM | CC50 [2]: 90.2 µM | selectivity ratio [3]: 12300 | EC50 [4]: 32.9 nM | EC50 [5]: 23.6 nM | EC50 [6]: 61.8 nM | EC50 [7]: 60.7 nM | EC50 [8]: 38.1 nM | EC50 [9]: 186 nM | EC50 [10]: 1390 nM | IC50 [11]: 210 nM

[2H]C([2H])([2H])c1cc(C#N)cc(C)c1Oc1nc(NC2CCN(Cc3ccc(C(N)=O)cc3)CC2)nc2ccsc12
EC50 [1]: 12.8 nM | CC50 [2]: > 242 µM | selectivity ratio [3]: > 18900 | EC50 [4]: 68.2 nM | EC50 [5]: 11.2 nM | EC50 [6]: 65.3 nM | EC50 [7]: 59.9 nM | EC50 [8]: 53.5 nM | EC50 [9]: 65.2 nM | EC50 [10]: 887 nM | IC50 [11]: 150 nM

[2H]C([2H])([2H])c1cc(C#N)cc(C)c1Oc1nc(NC2CCN(Cc3ccc(S(N)(=O)=O)cc3)CC2)nc2sccc12
EC50 [1]: 6.39 nM | CC50 [2]: > 227 µM | selectivity ratio [3]: > 35500 | EC50 [4]: 17.4 nM | EC50 [5]: 8.84 nM | EC50 [6]: 21.2 nM | EC50 [7]: 55.5 nM | EC50 [8]: 49.7 nM | EC50 [9]: 428 nM | EC50 [10]: 148 nM | IC50 [11]: 160 nM

[2H]C([2H])([2H])c1cc(C#N)cc(C)c1Oc1nc(NC2CCN(Cc3ccc(S(N)(=O)=O)cc3)CC2)nc2ccccc12
EC50 [1]: 3.07 nM | CC50 [2]: > 229 µM | selectivity ratio [3]: > 74600 | EC50 [4]: 8.11 nM | EC50 [5]: 6.92 nM | EC50 [6]: 12.9 nM | EC50 [7]: 54.2 nM | EC50 [8]: 10.6 nM | EC50 [9]: 44.3 nM | EC50 [10]: 245 nM | IC50 [11]: 210 nM

[2H]C([2H])([2H])c1cc(C#N)cc(C([2H])([2H])[2H])c1Oc1nc(NC2CCN(Cc3ccc(C(N)=O)cc3)CC2)nc2ccsc12
EC50 [1]: 5.11 nM | CC50 [2]: > 241 µM | selectivity ratio [3]: > 47200 | EC50 [4]: 44.3 nM | EC50 [5]: 6.75 nM | EC50 [6]: 46.8 nM | EC50 [7]: 57.6 nM | EC50 [8]: 59.8 nM | EC50 [9]: 78.2 nM | EC50 [10]: 1740 nM | IC50 [11]: 140 nM

[2H]C([2H])([2H])c1cc(C#N)cc(C([2H])([2H])[2H])c1Oc1nc(NC2CCN(Cc3ccc(C(N)=O)cc3)CC2)nc2sccc12
EC50 [1]: 4.19 nM | CC50 [2]: > 241 µM | selectivity ratio [3]: > 57500 | EC50 [4]: 21.6 nM | EC50 [5]: 4.58 nM | EC50 [6]: 53.8 nM | EC50 [7]: 61.6 nM | EC50 [8]: 62.3 nM | EC50 [9]: 724 nM | EC50 [10]: 496 nM | IC50 [11]: 140 nM

O=C1Nc2ccc(Cl)cc2[C@@](C#CC2CC2)(C(F)(F)F)O1 [EFAVIRENZ]
CC50 [2]: > 6.34 µM | EC50 [4]: 41.8 nM | EC50 [5]: 99.2 nM | EC50 [8]: 8.32 nM | EC50 [9]: 203 nM

Cc1ccnc2c1NC(=O)c1cccnc1N2C1CC1 [NEVIRAPINE]
EC50 [1]: 253 nM | CC50 [2]: > 15 µM | EC50 [4]: 1270 nM | EC50 [5]: 4710 nM | EC50 [7]: > 15000 nM | EC50 [8]: 237 nM | EC50 [9]: 7320 nM | EC50 [10]: > 15000 nM
